Experimental data published in patent US8822486B2, “Spiropiperidine compounds” (Eli Lilly and Company, priority 2009, dated 2014).

Experiments:
Conditions in all cases: concentrations up to 10 μM
PPARδ = target: T1, PPARδ (Homo sapiens, UniProt Q03181); assay: PPARδ binding assay (SPA)
T1 construct: made in house; host or cells: HEK293 (cell lysates)
T1 sequence (Q03181 1-441): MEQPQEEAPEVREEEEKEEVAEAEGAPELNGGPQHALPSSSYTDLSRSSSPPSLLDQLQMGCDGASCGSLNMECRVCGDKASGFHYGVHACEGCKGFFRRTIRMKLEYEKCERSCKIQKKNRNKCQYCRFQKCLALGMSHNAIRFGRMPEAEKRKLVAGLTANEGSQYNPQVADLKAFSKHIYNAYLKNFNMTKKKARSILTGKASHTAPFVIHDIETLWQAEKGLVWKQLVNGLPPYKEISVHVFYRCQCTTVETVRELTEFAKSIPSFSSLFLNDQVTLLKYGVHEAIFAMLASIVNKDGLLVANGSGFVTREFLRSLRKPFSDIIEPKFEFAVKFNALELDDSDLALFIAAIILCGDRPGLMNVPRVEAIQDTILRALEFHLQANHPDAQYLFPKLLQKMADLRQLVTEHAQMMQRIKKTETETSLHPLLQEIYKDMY
T1 sequence (P19793 1-462 partner): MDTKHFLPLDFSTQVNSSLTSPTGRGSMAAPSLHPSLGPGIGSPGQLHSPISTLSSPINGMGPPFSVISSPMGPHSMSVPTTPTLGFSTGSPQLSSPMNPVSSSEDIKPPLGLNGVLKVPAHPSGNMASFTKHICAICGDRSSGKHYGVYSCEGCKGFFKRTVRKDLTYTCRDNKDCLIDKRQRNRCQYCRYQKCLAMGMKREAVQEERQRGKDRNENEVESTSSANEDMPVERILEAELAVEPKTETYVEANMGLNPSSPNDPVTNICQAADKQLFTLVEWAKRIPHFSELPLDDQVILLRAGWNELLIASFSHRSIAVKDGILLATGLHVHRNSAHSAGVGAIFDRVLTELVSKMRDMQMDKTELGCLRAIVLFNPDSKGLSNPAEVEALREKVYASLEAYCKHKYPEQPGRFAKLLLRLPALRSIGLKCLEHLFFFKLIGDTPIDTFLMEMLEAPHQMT
Description: (§1) Because GPR40 is known to be activated by ligands to PPARγ exemplified compounds are examined in PPARα, PPARδ, and PPARγ binding and functional assays to determine the selectivity of exemplified compounds for GPR40. Compounds exemplified herein are tested essentially as described below for PPAR binding and generally have binding values greater than 1000 nM with 10 μM concentrations of test compound and are thus considered negative for PPAR activity.
(§2) Binding affinities of compounds for the PPAR α, δ, and γ receptors are assessed using Scintillation Proximity Assay (SPA) technology. Biotinylated oligonucleotide Direct Repeat 2 (DR2) is used for binding the receptors to Yttrium silicate streptavidin-coated SPA beads. […] Non-specific binding is determined in the presence of 10,000 nM of the unlabeled PPAR α/δ dual agonist reference compound for the alpha and delta receptor assays and the PPARγ agonist reference compound for the gamma receptor assay. The binding reaction (100 μl per well in a 96 well [Costar 3632] plate) is incubated for 10 h and counted disintegration per minutes (dpm) on a Wallac Microbeta. Receptor binding affinity (IC50) for the compounds is determined by fitting an 11 point concentration-response curve with a 4-paramater logistic equation. K, is determined from the IC50 using the Cheng-Prussoff equation and Kd determined by saturation binding. […]

PPARγ = target: T2, PPARγ (Homo sapiens, UniProt P37231); assay: PPARγ binding assay (SPA); design: made in house; host or cells: HEK293 (cell lysates)
T2 sequence (P37231 1-505): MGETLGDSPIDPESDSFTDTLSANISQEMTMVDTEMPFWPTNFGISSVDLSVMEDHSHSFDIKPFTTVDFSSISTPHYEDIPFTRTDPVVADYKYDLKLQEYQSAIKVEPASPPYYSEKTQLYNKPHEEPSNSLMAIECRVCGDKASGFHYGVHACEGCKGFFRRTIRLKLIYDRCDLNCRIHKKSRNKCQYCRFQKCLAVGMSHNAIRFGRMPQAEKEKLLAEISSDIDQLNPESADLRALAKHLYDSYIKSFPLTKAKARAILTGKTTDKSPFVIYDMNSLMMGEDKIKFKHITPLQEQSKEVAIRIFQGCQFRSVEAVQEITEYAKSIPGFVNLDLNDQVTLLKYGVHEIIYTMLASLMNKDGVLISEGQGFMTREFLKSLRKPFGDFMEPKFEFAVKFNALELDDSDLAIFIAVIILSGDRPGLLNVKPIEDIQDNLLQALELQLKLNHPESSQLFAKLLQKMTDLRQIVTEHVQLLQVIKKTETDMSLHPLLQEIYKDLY
T2 sequence (P19793 1-462 partner): T1 sequence (P19793 1-462 partner)
Description: as §1, §2

PPARα = target: T3, PPARα (Homo sapiens, UniProt Q07869); assay: PPARα binding assay (SPA)
T3 construct: made in house; host or cells: HEK293 (cell lysates)
T3 sequence (Q07869 1-468): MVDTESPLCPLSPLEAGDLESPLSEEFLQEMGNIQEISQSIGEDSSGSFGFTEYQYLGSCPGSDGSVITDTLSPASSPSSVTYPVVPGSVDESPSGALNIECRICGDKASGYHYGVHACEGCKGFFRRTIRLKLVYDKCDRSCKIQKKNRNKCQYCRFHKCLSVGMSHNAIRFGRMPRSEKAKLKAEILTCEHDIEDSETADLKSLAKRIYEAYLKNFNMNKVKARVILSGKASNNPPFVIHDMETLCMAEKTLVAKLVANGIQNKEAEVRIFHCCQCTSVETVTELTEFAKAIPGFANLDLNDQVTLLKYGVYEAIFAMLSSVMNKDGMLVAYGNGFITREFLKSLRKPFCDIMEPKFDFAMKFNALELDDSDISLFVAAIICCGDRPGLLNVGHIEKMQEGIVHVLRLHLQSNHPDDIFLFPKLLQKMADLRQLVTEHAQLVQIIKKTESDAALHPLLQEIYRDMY
T3 sequence (P19793 1-462 partner): T1 sequence (P19793 1-462 partner)
Description: as §1, §2

CC#C[C@@H](CC(=O)O)c1ccc(OCc2ccc(CN3CCC4(C=Cc5ccccc54)CC3)s2)cc1 [Example 1, (3S)-3-[4-[[5-(Spiro[indene-1,4′-piperidine]-1′-ylmethyl)-2-thienyl]methoxy]phenyl]hex-4-ynoic acid]
no binding is detected: PPARδ binding (PPARδ) | PPARγ binding (PPARγ) | PPARα binding (PPARα)
